# Measured values: patent US20250161312A1, “A METHOD FOR THE TREATMENT OF CHEMOTHERAPEUTIC DRUG-INDUCED NEPHROTOXICITY” (INSTITUT NATIONAL DE LA SANTÉ ET DE LA RECHERCHE MÉDICALE, priority 2022, published 2025)
# Tested on: LLC1 tumors in C57BL6/J mice
# Assay: LLC1 in vivo tumor model (syngeneic, sub-chronic cisplatin)
# Description: FIG. 1. Schematic representation of the different animal procedures. (A) Acute cisplatin-induced kidney injury. […] (B) Sub-chronic cisplatin-induced kidney injury. […] (C) KW-6002 administration schedule in the acute model. […] (D) KW-6002 administration schedule in the sub-chronic model.
# LLC1 cells (Lewis Lung Cancer cells, ATCC® CRL-1642™) were cultured in DMEM with 10% fetal calf serum and penicillin-streptomycin. LLC1 cells ([…]) in PBS: matrigel (1:1, for a total volume of 100 μL) were subcutaneously injected in the right flank of animals. Tumors were measured twice a week with calipers and their volumes were estimated using the following equation: ½ (length×width2).
# Prior sacrifice by cervical dislocation, retro-orbital blood samples were collected in heparinized tubes and centrifuged for 10 min at 2000 rpm at room temperature. Renal function was assessed by Blood urea nitrogen (BUN) measurement using a AU480 Chemistry Analyzer (Beckman Coulter). At the time of sacrifice, kidneys or LLC1 tumors were harvested and stored in either “RNA later” solution (Thermo Fisher), 4% neutral buffered formalin or snap-frozen in liquid nitrogen.
# Paraffin-embedded sections (3 μm thick) were deparaffinized with xylene and rehydrated in successive ethanol dilutions. Then, antigen retrieval was done by incubation in sub-boiling 10 mM sodium citrate buffer. Tissues were permeabilized in a 0.4% Triton X-100 solution, and nonspecific binding was blocked with a 5% BSA solution in TBS for 2 hours. Sections were then incubated overnight with an anti-γH2AX antibodies (1:50; no. 9718, Cell Signaling Technology). After washing, the secondary antibody (A10042) was incubated for 45 minutes at room temperature. Again, after washing, the nuclei were stained with a 300 nM DAPI solution (D1306, Life Technologies, Thermo Fisher Scientific). The slides were analyzed using a Zeiss LSM 880 confocal microscope. Quantification was performed using ImageJ. For immunofluorescence studies in free-floating sections, mice were deeply anesthetized with pentobarbital sodium (50 mg/kg, i.p.) and then transcardially perfused with cold NaCl (0.9%) and 4% paraformaldehyde in PBS (pH 7.4). Kidneys were removed, post-fixed for 24 hours in 4% paraformaldehyde, and cryoprotected in 30% sucrose before being frozen at −40° C. in isopentane (methyl-butane) and stored at −80° C. Longitudinal kidney sections (40 μm) were obtained using a Leica cryostat. Free-floating sections were stored in PBSazide (0.2%) at 4° C. Longitudinal kidney sections were incubated with a donkey serum (D9663, MilliporeSigma) at 10% in PBS Triton X-100 (0.2%) for 1 hour and then incubated with anti-A2AR primary antibody (1:50; GP-Af1000, Frontiers Institute) for 72 hours at 4° C. in Signal Boost (8114, Cell Signaling Technology). Alexa Fluor 568-conjugated secondary antibodies (1:500; Life Technologies, Thermo Fisher Scientific) were incubated overnight at room temperature. Lectin staining was performed by incubating sections for 1 hour at room temperature with Lotus tetragonolobus FITC conjugate (Vector Laboratories, FL-1321-2) diluted to 2 μg/mL in blocking medium. Sections were counterstained with DAPI (1:5,000; no. 62247, Thermo Fisher Scientific) and mounted on superfrost slides and left to dry. Then, they were covered with Vectashield Vibrance Antifade Mounting Medium (H-1700, Vector Laboratories). Images were acquired using a Zeiss LSM 710 confocal laser-scanning microscope at ×20 magnification. 3D reconstruction of confocal image stacks was performed using Imaris software (Bitplane).
# Reverse transcription was performed on 1 μg of RNA using high-capacity cDNA reverse transcription kit (Thermo Fisher), according the manufacturer's recommendation. Real time PCR was performed on a StepOne device using Taqman Gene Expression Master Mix (Thermo Fisher), following manufacturer's recommendations. […]
structure (smiles),measurement,setting,value
"CCn1c(=O)c2c(nc(/C=C/c3ccc(OC)c(OC)c3)n2C)n(CC)c1=O [KW-6002, 8-[(E)-2-(3,4-dimethoxyphenyl)vinyl]-1,3-diethyl-7-methyl-3,7-dihydro-1H-purine-2,6-dione]",cisplatin accumulation (platinum levels) in the kidney,"KW-6002-treated mice, FIG. 4A",lowered
same,cisplatin accumulation (platinum levels) in the tumors,"KW-6002-treated mice, FIG. 4B",remained unchanged
same,anti-tumoral response to cisplatin (tumor size),"co-treatment with cisplatin, FIG. 3",did not compromise the anti-tumoral response to cisplatin
same,"cisplatin-induced DNA damage, H2AX+ cells in tumors",in vivo LLC1 syngeneic model,increased number of H2AX+ cells
same,expression of some efflux transporters in kidneys,"qPCR, FIG. 4A",significantly increased
same,transporter expression in tumors,"qPCR, FIG. 4B",no expression changes
same,ability to protect from cisplatin-induced kidney injury,tumor-bearing mice,preserved
